Test results from ChEMBL document CHEMBL4145688, “Potent and Orally Bioavailable Inverse Agonists of RORγt Resulting from Structure-Based Design” (J Med Chem, 2018).
Converted amounts (≈) assume the structure as drawn.

Columns and labels:
[1] = Permeability from basolateral to apical side in human Caco2 cells; format: ADME, cell-based; settings: for Papp B→A: Caco-2, read-out: permeability; for permeability: Caco-2
[2] = Distribution coefficient between 1-octanol and aqueous phosphate buffer, logD of the compound in pH 7.4 buffer; format: physicochemical; settings: 1-octanol/aqueous phosphate buffer
[3] = Permeability in human Caco2 cells assessed as drug recovery; format: ADME, cell-based; settings: Caco-2, read-out: Drug recovery
[4] = Unbound fraction in human plasma by equilibrium dialysis; format: ADME, cell-free
physchem = settings: aqueous buffer, pH 7.4
Description: Solubility in aqueous buffer at pH 7.4

[5] = Cytotoxicity in human Th17 cells assessed as effect on cell viability by cell-titer-Glo luminescent cell viability assay relative to control; format: cell-based; settings: read-out: Efficacy
[6] = biological target: T1, Nuclear receptor ROR-gamma (Homo sapiens, UniProt P51449); test: Inverse agonist activity at RORgammat in human TH17 cells assessed as inhibition of IL17 release incubated for 4 days by HTRF assay; format: cell-based
T1 sequence (P51449 whole entry): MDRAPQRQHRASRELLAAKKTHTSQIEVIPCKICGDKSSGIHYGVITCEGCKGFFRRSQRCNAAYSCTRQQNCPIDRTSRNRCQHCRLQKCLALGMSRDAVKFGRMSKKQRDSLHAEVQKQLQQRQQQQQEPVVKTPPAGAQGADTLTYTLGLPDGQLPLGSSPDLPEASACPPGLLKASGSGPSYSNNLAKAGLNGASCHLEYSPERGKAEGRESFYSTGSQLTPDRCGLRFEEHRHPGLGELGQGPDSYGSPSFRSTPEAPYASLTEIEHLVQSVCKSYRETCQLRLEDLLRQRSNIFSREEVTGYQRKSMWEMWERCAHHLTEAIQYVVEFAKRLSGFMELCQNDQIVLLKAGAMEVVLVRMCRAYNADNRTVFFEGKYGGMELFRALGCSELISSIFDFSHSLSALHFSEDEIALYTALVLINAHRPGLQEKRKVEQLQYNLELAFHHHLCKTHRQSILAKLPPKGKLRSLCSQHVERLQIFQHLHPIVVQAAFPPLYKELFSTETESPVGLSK

[7] = Efflux ratio of permeability in human Caco2 cells; format: ADME, cell-based; settings: Caco-2
[8] = Permeability from apical to basolateral side in human Caco2 cells; format: ADME, cell-based; settings: for Papp A→B: Caco-2, read-out: permeability; for permeability: Caco-2
[9] = biological target: T1, Nuclear receptor ROR-gamma
Description: Displacement of [3H]-2-(4-(ethylsulfonyl)phenyl)-N-(4-(2-(methoxymethyl)phenyl)thiophen-2-yl)acetamide from purified N-(HN)6-GST-TCS-human RORgammat (258 to 518 residues) incubated for 16 hrs by scintillation proximity assay

[10] = biological target: T1, Nuclear receptor ROR-gamma; remark: listed apart in the source
[11] = Volume of distribution at steady state in Han Wistar rat at 0.5 mg/kg, iv or 1 mg/kg, po; format: ADME, organism-based; settings: in vivo, read-out: Vdss
[12] = Intrinsic clearance in human hepatocytes assessed per million cells; format: ADME, cell-based, Hepatocyte; settings: read-out: CLH
[13] = Selectivity index, ratio of cytotoxicity in human Th17 cells to IC50 for inverse agonist activity at RORgammat in human TH17 cells assessed as inhibition of IL17 release; format: toxicity, cell-based
[14] = Clearance in Han Wistar rat at 0.5 mg/kg, iv or 1 mg/kg, po; format: ADME, organism-based; settings: in vivo
[15] = Intrinsic clearance in rat hepatocytes assessed per million cells; format: ADME, cell-based, Hepatocyte; settings: read-out: CLH
[16] = Oral absorption in Han Wistar rat at 1 mg/kg; format: ADME, organism-based; settings: in vivo, read-out: Fabs
[17] = Oral bioavailability in Han Wistar rat at 1 mg/kg; format: ADME, organism-based; settings: in vivo
[18] = Half life in Han Wistar rat at 0.5 mg/kg, iv or 1 mg/kg, po; format: ADME, organism-based; settings: in vivo
hERG (KCNH2) = hERG (KCNH2) (Homo sapiens, UniProt Q12809); test: Inhibition of human ERG at 11 uM
[19] = biological target: T2, Nuclear receptor ROR-alpha (Homo sapiens, UniProt P35398); test: Agonist activity at His6-tcs-human RORalpha LBD assessed as stimulation of biotinylated PGC1alpha (130 to 154 residues) peptide recruitment incubated for 1 hr by HTRF-FRET assay; settings: read-out: IC50 (the source's name)
T2 sequence (P35398 whole entry): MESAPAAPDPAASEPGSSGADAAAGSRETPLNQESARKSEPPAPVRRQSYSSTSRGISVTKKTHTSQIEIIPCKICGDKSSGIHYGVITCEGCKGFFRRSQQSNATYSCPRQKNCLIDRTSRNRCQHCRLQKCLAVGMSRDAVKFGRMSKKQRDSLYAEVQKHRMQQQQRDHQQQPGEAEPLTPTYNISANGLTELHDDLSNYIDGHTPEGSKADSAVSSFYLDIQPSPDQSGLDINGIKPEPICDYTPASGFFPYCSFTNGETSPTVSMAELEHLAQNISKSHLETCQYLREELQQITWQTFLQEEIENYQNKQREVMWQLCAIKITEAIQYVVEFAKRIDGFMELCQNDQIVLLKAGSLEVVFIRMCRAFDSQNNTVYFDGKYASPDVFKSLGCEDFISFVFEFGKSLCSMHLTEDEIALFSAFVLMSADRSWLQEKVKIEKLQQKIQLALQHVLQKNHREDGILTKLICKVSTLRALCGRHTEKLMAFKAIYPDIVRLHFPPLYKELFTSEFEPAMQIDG

[20] = Stability in pH 5 buffer solution at 37 degC measured over 2 days; format: physicochemical; settings: pH 5, 48 h
[21] = Stability in pH 8 buffer solution at 37 degC measured over 2 days; format: physicochemical; settings: pH 8, 48 h
[22] = biological target: T3, Nuclear receptor ROR-beta (Homo sapiens, UniProt Q92753); test: Displacement of [3H]ATRA from 6H-AVI-GST-TEV-human RORbeta (T221 to K470 residues) pre-incubated for 30 mins before [3H]ATRA addition and measurted ater 18 to 23 hrs by scintillation proximity assay
T3 sequence (Q92753 whole entry): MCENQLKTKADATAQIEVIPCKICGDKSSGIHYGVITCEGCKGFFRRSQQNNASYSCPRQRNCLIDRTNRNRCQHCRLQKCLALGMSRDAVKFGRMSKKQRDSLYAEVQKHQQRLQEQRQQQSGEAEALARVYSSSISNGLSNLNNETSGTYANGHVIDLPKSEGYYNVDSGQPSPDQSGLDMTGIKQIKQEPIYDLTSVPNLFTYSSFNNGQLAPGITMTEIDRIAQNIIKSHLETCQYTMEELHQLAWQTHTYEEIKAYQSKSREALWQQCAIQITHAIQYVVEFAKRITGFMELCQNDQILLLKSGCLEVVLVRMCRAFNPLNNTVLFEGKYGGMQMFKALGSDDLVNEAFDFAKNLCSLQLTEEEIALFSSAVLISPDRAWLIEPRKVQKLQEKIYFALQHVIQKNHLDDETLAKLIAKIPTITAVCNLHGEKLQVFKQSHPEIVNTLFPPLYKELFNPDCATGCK

[23] = biological target: T2, Nuclear receptor ROR-alpha; test: Inverse agonist activity at His6-tcs-human RORalpha LBD assessed as inhibition of biotinylated PGC1alpha (130 to 154 residues) peptide recruitment incubated for 1 hr by HTRF-FRET assay
[24] = Stability in pH 7.4 buffer solution at 37 degC measured over 2 days; format: physicochemical; settings: pH 7.4, 48 h

Sequence of hERG (KCNH2) (Q12809 whole entry, the tested form may be a part): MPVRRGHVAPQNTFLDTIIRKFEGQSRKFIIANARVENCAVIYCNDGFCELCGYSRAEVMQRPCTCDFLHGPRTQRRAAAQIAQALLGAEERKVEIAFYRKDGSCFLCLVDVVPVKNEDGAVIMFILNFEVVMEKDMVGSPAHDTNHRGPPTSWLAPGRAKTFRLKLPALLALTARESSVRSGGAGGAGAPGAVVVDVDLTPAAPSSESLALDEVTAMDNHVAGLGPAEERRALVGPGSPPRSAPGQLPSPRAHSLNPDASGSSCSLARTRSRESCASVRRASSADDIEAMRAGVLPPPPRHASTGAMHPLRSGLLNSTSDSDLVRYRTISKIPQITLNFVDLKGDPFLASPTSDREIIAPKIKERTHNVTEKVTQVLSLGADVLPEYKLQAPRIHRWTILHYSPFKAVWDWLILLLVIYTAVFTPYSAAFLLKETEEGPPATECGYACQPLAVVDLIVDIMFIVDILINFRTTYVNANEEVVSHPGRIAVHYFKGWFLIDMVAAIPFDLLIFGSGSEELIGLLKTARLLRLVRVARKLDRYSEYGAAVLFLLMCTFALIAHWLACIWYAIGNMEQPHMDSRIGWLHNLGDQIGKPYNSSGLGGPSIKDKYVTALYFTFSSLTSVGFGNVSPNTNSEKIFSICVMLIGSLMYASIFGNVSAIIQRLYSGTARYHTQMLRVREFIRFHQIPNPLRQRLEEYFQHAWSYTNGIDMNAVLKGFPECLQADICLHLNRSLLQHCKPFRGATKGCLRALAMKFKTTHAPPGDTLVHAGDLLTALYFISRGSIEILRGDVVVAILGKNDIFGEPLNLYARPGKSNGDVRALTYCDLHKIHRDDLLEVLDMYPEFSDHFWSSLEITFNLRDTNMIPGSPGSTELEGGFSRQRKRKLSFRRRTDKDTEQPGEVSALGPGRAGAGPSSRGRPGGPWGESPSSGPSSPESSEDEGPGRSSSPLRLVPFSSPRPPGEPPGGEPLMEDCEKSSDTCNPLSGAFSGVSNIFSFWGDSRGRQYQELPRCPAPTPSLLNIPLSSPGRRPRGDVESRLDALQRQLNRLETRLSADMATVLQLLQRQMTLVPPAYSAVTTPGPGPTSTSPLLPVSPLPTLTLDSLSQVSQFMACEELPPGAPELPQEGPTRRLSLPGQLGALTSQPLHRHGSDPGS

| Structure (SMILES) | Papp B→A [1] | logD [2] | fraction unbound [4] | solubility (physchem) | Emax [5] | IC50 [6] | efflux ratio [7] | Papp A→B [8] | IC50 [9] | IC50 [10] | Vd [11] | hepatocyte CLint [12] | clearance [14] | hepatocyte CLint [15] | Fa [16] | bioavailability [17] | half-life [18] | inhibition at 11 µM (hERG (KCNH2)) | EC50 [19] | IC50 [23] | also measured |
| --- | --- | --- | --- | --- | --- | --- | --- | --- | --- | --- | --- | --- | --- | --- | --- | --- | --- | --- | --- | --- | --- |
| CCS(=O)(=O)c1ccc(CC(=O)Nc2cc(-c3cccc(Cl)c3)c(C(=O)c3ccccc3Cl)s2)cc1 | 0.6 ×10⁻⁶ cm/s | 4.5 | < 0.002 | < 0.1 µM | 40% | 6 nM | > 324 | < 0.001 ×10⁻⁶ cm/s | 2 nM | 23 nM |  |  |  |  |  |  |  |  |  |  | recovery [3]: 52% |
| CCS(=O)(=O)c1ccc(CC(=O)Nc2cc(-c3cc(C#N)cc(F)c3OC)cs2)cc1 | 7.1 ×10⁻⁶ cm/s | 3.9 | 0.0017 to 0.002 | 0.4 to 0.6 µM (≈ 0.183 to 0.275 µg/mL) | 60% | 700 nM | 3.9 | 1.8 ×10⁻⁶ cm/s | 20 nM | 30 nM | 0.48 L/kg | 5.6 µL/min/1e6 cells | 5.5 mL/min/kg | 11.3 µL/min/1e6 cells | 92% | 85% | 1.2 h | 43% |  |  | selectivity ratio [13]: < 10; recovery [3]: 41% |
| CCS(=O)(=O)c1ccc([C@@H](NC(C)=O)C(=O)Nc2cc(-c3cccnc3OCc3ccc(OC(F)(F)F)cc3)cs2)cc1 | 42 ×10⁻⁶ cm/s | 4.7 | 0.001 | 0.3 µM (≈ 0.19 µg/mL) |  | 11 nM | > 1500 | < 0.001 ×10⁻⁶ cm/s | 3 nM | 34 nM | 2.4 L/kg | 8.5 µL/min/1e6 cells | 12 mL/min/kg | 8.9 to 12 µL/min/1e6 cells | < 1.2% | < 1% | 4.3 h | 8% | > 33000 nM | 9400 nM | Stability [20]: Stable; Stability [21]: Stable; IC50 [22]: > 10000 nM; Stability [24]: Stable |
| CCS(=O)(=O)c1ccc(C(NC(C)=O)C(=O)Nc2cc(-c3cc(C#N)cnc3OCC(F)(F)F)cs2)cc1 (centres undefined) |  | 3.7 | 0.002 | 3.6 µM (≈ 2.04 µg/mL) |  | 49 nM |  |  | 7 nM | 72 nM |  |  |  | < 1 µL/min/1e6 cells |  |  |  | 3% | > 33000 nM | 600 nM | IC50 [22]: > 10000 nM |
| CCS(=O)(=O)c1ccc(CC(=O)Nc2cc(-c3cccnc3OCc3ccc(OC(F)(F)F)cc3)cs2)cc1 |  |  | < 0.0002 | 0.7 µM (≈ 0.404 µg/mL) | 40% | 25 nM |  |  | 7 nM | 30 nM | 3.8 L/kg | 8.6 µL/min/1e6 cells | 46.5 mL/min/kg | 40 µL/min/1e6 cells | 30% | 10% | 1.4 h | 0% | > 33000 nM | > 33000 nM | selectivity ratio [13]: 100; permeability [1]: Impermeable; IC50 [22]: > 10000 nM; Ratio [7]: Impermeable; permeability [8]: Impermeable |
| CCS(=O)(=O)c1ccc(CC(=O)Nc2cc(-c3cc(C#N)cnc3OCC(F)(F)F)cs2)cc1 |  |  | 0.0006 | 0.2 µM (≈ 0.102 µg/mL) |  | 65 nM |  |  | 2 nM | 30 nM | 0.23 L/kg | 5.9 µL/min/1e6 cells | 0.8 mL/min/kg | 7.5 µL/min/1e6 cells | 36% | 36% | 4.4 h | 47% | > 33000 nM | 6200 nM | permeability [1]: Impermeable; Ratio [7]: Impermeable; permeability [8]: Impermeable |
| CCS(=O)(=O)c1ccc([C@H](NC(C)=O)C(=O)Nc2cc(-c3cccnc3OCc3ccc(OC(F)(F)F)cc3)cs2)cc1 |  | 4.7 |  |  |  | 23 nM |  |  | 270 nM | 3530 nM |  |  |  | 18 µL/min/1e6 cells |  |  |  |  |  |  | Stability [20]: Stable; Stability [21]: Stable; Stability [24]: Stable |
| CCS(=O)(=O)c1ccc(CC(=O)Nc2cc(-c3cccnc3Oc3ccc(OC(F)(F)F)cc3)cs2)cc1 |  |  | < 0.001 | 2.5 µM (≈ 1.41 µg/mL) |  | 144 nM |  |  | 33 nM |  | 2.8 L/kg | 11.9 µL/min/1e6 cells | 24 mL/min/kg | 20 µL/min/1e6 cells | 67% | 45% | 1.6 h | 14% | > 33000 nM | > 33000 nM | permeability [1]: Impermeable; Ratio [7]: Impermeable; permeability [8]: Impermeable |
